Row | SMILES | melting point
1 | c1ccc(CP(c2ccccc2)c2ccccc2)cc1 | 75 °C
2 | O=C(O)CCS | 18 °C
3 | C(=NC(N=Cc1ccco1)c1ccco1)c1ccco1 (centres undefined) | 117 °C
4 | CCCCCCCCCCCCC(Br)C(=O)O (centres undefined) | 42 °C
5 | CC(C)(C)c1nn(-c2ccccc2)c(N)c1Cn1nnc2ccccc21 | 124 °C
6 | CN1C(=O)NC(=O)C(C)(C2=CCCCC2)C1=O (centres undefined) | 146 °C
7 | Nc1nnc(C2CCC2)[nH]1 | 153 to 155 °C
8 | CC(CO)(CO)CO | 204 °C
9 | CC(C)N(C(=O)CCl)c1ccccc1 | 77 °C
10 | CC(C)(C)C1=CC(=NO)C=C(C(C)(C)C)C1=O | 219 °C
11 | Nc1ccc(N2CCOCC2)cc1 | 130 to 131 °C
12 | CCCCCCCOC(=O)CCCCC | -34.4 °C
13 | N#C/C(=N/Nc1ccccc1Cl)c1nc(-c2ccccc2)cs1 | 160 °C
14 | CC12CCC(C1(C)C)C(CCCc1ccccc1)(C1(CCCc3ccccc3)C(=O)C3(C)CCC1C3(C)C)C2=O (centres undefined) | 250 °C
15 | CC(C)(C)OC(=O)N1CCC(C(N)=S)CC1 | 130 to 131 °C
16 | CSC[C@H](N)C(=O)O | 240 °C
17 | Cc1ccc(CBr)cc1 | 35 °C
18 | C#CC[C@H](NC(=O)OC(C)(C)C)C(=O)O | 85.5 °C
19 | CC1C2CCCC(C2=NNC(N)=S)C2(O)CCCCC12 (centres undefined) | 195 °C
20 | NC(=O)NC12CC3CC(CC(C3)C1)C2 | 250 °C
21 | COc1cc2c3c(c4ccc(OC)c(OC)c4c2cc1OC)CN1CCCC1C3 (centres undefined) | 220 °C
22 | CCCCCC=CCC=CCCCCCCCC(=O)O | -5 °C

Row | SMILES | melting point
23 | O=C=Nc1cccs1 | 108 to 110 °C
24 | BrCCOc1ccc(Br)cc1 | 56 to 57 °C
25 | CCN(C)CC | -196 °C
26 | C=C(Br)CC1(C(C)C)C(=O)NC(=O)NC1=O | 177 °C
27 | CC(C)c1cc(C(C)C)c(S(=O)(=O)N=[N+]=[N-])c(C(C)C)c1 | 42 °C
28 | CCCCOC(=O)C(=O)C1C(C)CC2C3CC(F)C4=CC(=O)C=CC4(C)C3C(O)CC21C (centres undefined) | 195 °C
29 | Cc1nc2ccccn2c1Br | 73 to 74 °C
30 | C[C@](N)(CO)C(=O)O | 286 to 288 °C
31 | Cn1cc(Br)c(CCl)n1 | 76.5 to 78.5 °C
32 | C#CC | -103 °C
33 | COc1cc(/C=C\C(=O)NCCc2ccc(OCc3ccccc3)c(OC)c2)ccc1OCc1ccccc1 | 163 °C
34 | CCOC(=O)c1c[nH]nc1C | 136 to 138 °C
35 | CCN(CC)C(=O)c1[nH]c(C)c(C)c1C | 113 to 115 °C
36 | CC(C)=CCCC(C)=CCO | 50 °C
37 | O=C1CCCN1C1CCCCC1 | 13 °C
38 | Sc1nnc(-c2ccco2)n1-c1ccc(OCc2ccccc2)cc1 | 236 to 238 °C
39 | O=C(CCl)N1CCOCC1 | 37 °C
40 | Clc1cc(Cl)c2c(c1Cl)Oc1c(Cl)cc(Cl)c(Cl)c1O2 | 238 °C
41 | O=C(c1ccccc1)c1noc(-c2ccc3ccccc3c2)c1S(=O)(=O)c1ccccc1 | 178 °C
42 | CCCCCCCC(N)P(=O)(O)O (centres undefined) | 269 to 270 °C
43 | CC(=O)CC(C)(C)C | -64 °C
44 | C[Si](C)(C)C1=CC2(CCCCC2)CC1=O | 56 °C

The next lines start with the values.

Row | melting point | SMILES
45 | 192 °C | COc1ncnc(NS(=O)(=O)c2ccc(N)cc2)c1OC
46 | 102 °C | CCCOc1ccc([N+](=O)[O-])cc1NC(C)=O
47 | -33 °C | CC(C)Oc1ccccc1
48 | 135 °C | O=C(O)c1cc(F)ccc1[N+](=O)[O-]
49 | 217 °C | COC(=O)C1=C(C)NC(C)=C(C(=O)On2nnc3ccccc32)[C@H]1c1ccc([N+](=O)[O-])cc1
50 | 154 to 156 °C | N#Cc1ccc(O)c(O)c1
51 | 190 °C | CC(CCc1ccccc1)NCC(O)c1ccc(O)c(C(N)=O)c1 (centres undefined)
52 | 36 °C | Nc1cc(C(F)(F)F)c(Br)cc1F
53 | 83 to 84 °C | Cc1cc2ccccc2nc1Cl
54 | 174 to 176 °C | CC(C)(C)OC(=O)N1CCN(c2cc(C(=O)O)ccn2)CC1
55 | 112 °C | OCc1ccc(-c2cccs2)cc1
56 | 138 °C | CC1=NN(c2ccc(C)cc2)C(=O)C1
57 | 76.5 to 78 °C | OCc1cccc2ccsc12
58 | 109 °C | CC(=O)Oc1nc(CCc2ccccc2)nn1-c1ccccc1
59 | 128 °C | C/C(CCc1ccc2c(c1)NC(C)CC2)=N\NC(N)=O (centres undefined)
60 | 219 °C | NS(=O)(=O)c1ccc2ccccc2c1
61 | 254 °C | Nc1ccc(S(=O)(=O)Nc2ncccn2)cc1
62 | 154 to 158 °C | O=[N+]([O-])c1ccc(-c2csc(CCl)n2)cc1
63 | 107 to 109 °C | BrCc1ccc(-c2ccsc2)cc1
64 | 228 to 230 °C | C/C(=N/NC(N)=S)C(=O)Nc1ccc(Br)cc1
65 | 42 °C | COc1ccc(C(=O)C2CC2)cc1
66 | 88 °C | CC(=O)c1cc(C)c(Br)cc1O
67 | 190 to 194 °C | COc1c(C)cc(C(=O)O)cc1C
68 | 186 to 187 °C | Cn1nc(-c2ccccc2)cc1C(=O)O
69 | 118 °C | CCOC(=O)C(=O)c1cc(C(=O)C(=O)OCC)c([N+](=O)[O-])cc1[N+](=O)[O-]

Row | melting point | SMILES
70 | 265 °C | Cn1c(=O)c(C2=NNC(=O)C2=Cc2ccc3c(c2)OCO3)c(O)c2ccccc21
71 | 223 to 225 °C | CSc1nc2ccccc2c(=O)[nH]1
72 | 29 °C | Nc1c(F)ccc(F)c1Cl
73 | 79 °C | CC(O)CCc1ccc2c(c1)NC(C)CC2 (centres undefined)
74 | 66.5 to 69.8 °C | CCOC(=O)c1csc(C2COc3ccccc3O2)n1 (centres undefined)
75 | 123 °C | O=C(NCC(c1ccccc1)c1ccccc1)c1ccccc1
76 | 73 °C | O=C(Cc1ccccc1)C(=O)C(Br)c1ccccc1 (centres undefined)
77 | 206 °C | O=S(=O)(O)c1ccc(Nc2ccccc2)cc1
78 | 71 to 73 °C | Cc1c(Cl)cccc1S(=O)(=O)Cl
79 | 110 °C | O=Cc1cccc([N+](=O)[O-])c1O
80 | 101 to 102 °C | NNc1ccc(I)cc1
81 | 235 °C | CCOC(=O)Nc1ccc2cc3ccc4c(c3nc2c1)COC(=O)N4
82 | 147 °C | O=C(N[C@H](Cc1ccc(Cl)cc1)C(=O)O)OCC1c2ccccc2-c2ccccc21
83 | 130 °C | COCCOc1ccccc1S(=O)(=O)NC(=O)Nc1nc(OC)nc(OC)n1
84 | 112 °C | O=C(OCc1ccccc1)c1ccc(O)cc1
85 | 178 °C | Oc1cccc2cc3cccc(O)c3c(O)c12
86 | 15 °C | Cc1ccccc1S
87 | 120 to 123 °C | Cc1cc(O)c(C(=O)CC(=O)c2ccccc2)cc1Cl
88 | 204 to 206 °C | CC(=O)NC(Cc1c[nH]c2ccccc12)C(=O)O (racemic)
89 | 164 to 165 °C | Cc1nc2sccn2c1C(=O)O
90 | 151 °C | COc1ccc(CNC(=O)c2cc([N+](=O)[O-])cc([N+](=O)[O-])c2)cc1
91 | 21 °C | CC(=O)Oc1ccc(Br)cc1
92 | -40 °C | Cc1ccc2c(c1)CCCC2
93 | -39 °C | COc1ccccc1F
94 | 135 °C | COc1ccc2c(c1)c(C=O)cn2C

From a melting point compilation (Tetko et al.)
